Measured values taken from article PMC10709440, “High-throughput ligand profile characterization in novel cell lines expressing seven heterologous insect olfactory receptors for the detection of volatile plant biomarkers” (Scientific Reports, 2023).
Where two headings read alike, the source gives them in different places.

What was measured:
[1] = target: T1, Drosophila OR10a (Drosophila melanogaster, UniProt Q9VYZ1); experiment: Calcium ion fluorescence (GCaMP6) assay, OR10a stable HEK293 cell line; type: cell-based; conditions: for EC50: single-concentration estimate from 100 µM, plate 2019.12.05; for OR10a response (VUAA1-normalized) at 1 μM / OR10a response (VUAA1-normalized) at 10 μM / OR10a response (VUAA1-normalized) at 100 μM: OR10a cell line; for OR10a response (VUAA1-normalized) at 1 μM: VOC concentration 1 μM; for OR10a response (VUAA1-normalized) at 10 μM: VOC concentration 10 μM; for OR10a response (VUAA1-normalized) at 100 μM: VOC concentration 100 μM
T1 construct: expressed in transfected cells
T1 sequence (Q9VYZ1 1-406): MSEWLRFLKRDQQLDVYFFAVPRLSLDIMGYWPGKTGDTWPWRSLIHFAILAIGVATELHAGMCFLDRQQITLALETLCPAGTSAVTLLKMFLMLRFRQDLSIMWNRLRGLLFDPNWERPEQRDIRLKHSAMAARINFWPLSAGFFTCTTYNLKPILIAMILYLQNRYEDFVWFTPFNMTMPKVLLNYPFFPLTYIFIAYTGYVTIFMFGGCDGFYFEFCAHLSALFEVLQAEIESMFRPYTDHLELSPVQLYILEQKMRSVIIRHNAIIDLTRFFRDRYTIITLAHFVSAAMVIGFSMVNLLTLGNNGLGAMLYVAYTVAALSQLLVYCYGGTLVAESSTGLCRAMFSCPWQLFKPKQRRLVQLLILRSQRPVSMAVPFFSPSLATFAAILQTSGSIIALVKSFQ
T1 sequence (Q9VNB5 1-486 partner): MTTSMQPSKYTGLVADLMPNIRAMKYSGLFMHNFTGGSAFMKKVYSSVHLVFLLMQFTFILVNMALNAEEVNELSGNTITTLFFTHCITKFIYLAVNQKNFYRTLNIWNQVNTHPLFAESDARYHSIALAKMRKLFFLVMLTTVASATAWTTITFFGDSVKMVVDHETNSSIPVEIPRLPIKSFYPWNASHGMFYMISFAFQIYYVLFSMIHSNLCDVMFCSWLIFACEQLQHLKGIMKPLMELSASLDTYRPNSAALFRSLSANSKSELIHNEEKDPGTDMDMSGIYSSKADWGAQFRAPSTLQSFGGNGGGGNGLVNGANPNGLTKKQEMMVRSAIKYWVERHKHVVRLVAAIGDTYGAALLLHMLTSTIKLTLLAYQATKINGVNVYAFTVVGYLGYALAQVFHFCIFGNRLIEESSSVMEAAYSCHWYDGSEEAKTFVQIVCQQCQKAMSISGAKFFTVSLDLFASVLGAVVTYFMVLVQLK
Method in brief: (§1)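 Responses are VUAA1-normalized ΔF: each VOC-evoked calcium signal, (FMAX−F0)/F0 over 30 s after injection, divided by the same line's mean 50 µM VUAA1 response. Cells were doxycycline-induced HEK293 with GCaMP6 and the cognate Drosophila OR, in HEPES buffer pH 7.3; ligands tested 0.01–100 μM.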

[2] = target: T2, Drosophila OR71a (Drosophila melanogaster, UniProt Q9VUK5); experiment: Calcium ion fluorescence (GCaMP6) assay, OR71a stable HEK293 cell line; type: cell-based; conditions: for OR71a response (VUAA1-normalized) at 1 μM / OR71a response (VUAA1-normalized) at 10 μM / OR71a response (VUAA1-normalized) at 100 μM / Average response: OR71a cell line; for OR71a response (VUAA1-normalized) at 1 μM: VOC concentration 1 μM; for OR71a response (VUAA1-normalized) at 10 μM: VOC concentration 10 μM; for OR71a response (VUAA1-normalized) at 100 μM: VOC concentration 100 μM; for Average response: VUAA1-normalized response, mean of biological replicates; for activation at 1 µM / activation at 10 µM / activation at 100 µM: HEK293, read-out: OR71a response (VUAA1-normalized response)
T2 construct: expressed in transfected cells
T2 sequence (Q9VUK5 1-378): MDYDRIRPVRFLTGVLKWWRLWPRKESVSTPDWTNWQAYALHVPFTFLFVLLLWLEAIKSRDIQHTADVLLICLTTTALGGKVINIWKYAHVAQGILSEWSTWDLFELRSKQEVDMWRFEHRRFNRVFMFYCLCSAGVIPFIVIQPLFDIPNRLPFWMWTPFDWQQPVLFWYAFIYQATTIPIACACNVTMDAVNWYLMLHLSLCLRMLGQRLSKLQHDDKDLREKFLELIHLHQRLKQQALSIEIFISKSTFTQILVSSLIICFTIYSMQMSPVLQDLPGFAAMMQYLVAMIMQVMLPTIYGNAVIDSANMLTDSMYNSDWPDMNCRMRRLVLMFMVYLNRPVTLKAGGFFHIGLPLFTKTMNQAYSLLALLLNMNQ
T2 sequence (Q9VNB5 1-486 partner): T1 sequence (Q9VNB5 1-486 partner)
Method in brief: as §1

[3] = 100 µM, OR10a clone G5, single plate 2019.12.05
[4] = HEK293, 1 μM VOC, 50 μM VUAA1 = 1, responses not exceeding 0.05 considered 0, read-out: OR10a Average response (VUAA1-normalized)
[5] = HEK293, 10 μM VOC, 50 μM VUAA1 = 1, responses not exceeding 0.05 considered 0, read-out: OR10a Average response (VUAA1-normalized)
[6] = HEK293, 100 μM VOC, 50 μM VUAA1 = 1, responses not exceeding 0.05 considered 0, read-out: OR10a Average response (VUAA1-normalized)
[7] = ligand concentration 1 (unit not given), threshold 0.05, below shown as 0
[8] = ligand concentration 10 (unit not given), threshold 0.05, below shown as 0
[9] = ligand concentration 100 (unit not given), threshold 0.05, below shown as 0
[10] = HEK293, read-out: OR10a response (VUAA1-normalized response), VOC concentration 1 μM
[11] = HEK293, read-out: OR10a response (VUAA1-normalized response), VOC concentration 10 μM
[12] = HEK293, read-out: OR10a response (VUAA1-normalized response), VOC concentration 100 μM
[13] = concentration 1, normalized fluorescence change, values below 0.05 threshold given as 0
[14] = concentration 10, normalized fluorescence change, values below 0.05 threshold given as 0
[15] = concentration 100, normalized fluorescence change, values below 0.05 threshold given as 0

Structure (SMILES)	activation at 1 µM [1, 4] [%]	activation at 10 µM [1, 5] [%]	activation at 100 µM [1, 6] [%]	OR10a response (VUAA1-normalized) at 1 μM [1]	OR10a response (VUAA1-normalized) at 10 μM [1]	OR10a response (VUAA1-normalized) at 100 μM [1]	DF norm AVERAGE OR10a [1, 7]	DF norm AVERAGE OR10a [1, 8]	DF norm AVERAGE OR10a [1, 9]	OR71a response (VUAA1-normalized) at 1 μM [2]	OR71a response (VUAA1-normalized) at 10 μM [2]	OR71a response (VUAA1-normalized) at 100 μM [2]	Average response ([2]; cc. 1 µM)	Average response ([2]; cc. 10 µM)	Average response ([2]; cc. 100 µM)	DF norm AVERAGE OR71a [2, 7]	DF norm AVERAGE OR71a [2, 8]	DF norm AVERAGE OR71a [2, 9]	activation at 1 µM [1, 10] [%]	activation at 10 µM [1, 11] [%]	also measured
COC(=O)c1ccccc1 [methyl benzoate]	31	64	67	0.31	0.64	0.67	0.3063	0.6425	0.6719	0.00	0.00	0.00	0.00	0.00	0.0121	0	0	0			DF norm, all technical replicates [1, 3]: 0.8079; DF norm, outlier technical replicates removed [1, 3]: 0.8079; DF, outlier technical replicates removed [1, 3]: 1.408; DF, all technical replicates ([1]; 100 µM, OR10a clone G5, single plate 2019.12.05, xc+0.1%DMSO): 1.408; EC50 ([1]; EC50, all technical replicates, OR10a clone G5): 23.8 µM; EC50 ([1]; EC50, outlier technical replicates removed, OR10a clone G5): 23.8 µM
Cc1cccc(C)c1 [m-xylene]				0.00	0.00	0.00	0	0	0	0.00	0.00	0.00	0.00	0.00	0.00	0	0	0			activation at 1 µM ([1]; HEK293, read-out: OR10a Average response (VUAA1-normalized), 1 μM VOC, 50 μM VUAA1 = 1, responses not exceeding 0.05 considered 0): 0%; activation at 10 µM ([1]; HEK293, read-out: OR10a Average response (VUAA1-normalized), 10 μM VOC, 50 μM VUAA1 = 1, responses not exceeding 0.05 considered 0): 0%; activation at 100 µM ([1]; HEK293, read-out: OR10a Average response (VUAA1-normalized), 100 μM VOC, 50 μM VUAA1 = 1, responses not exceeding 0.05 considered 0): 2%
CCCCCC(C)=O [2-heptanone]	3	4	4										0.08	0.12	0.05				0	0	DF norm AVERAGE OR10a [1]: 0; activation at 100 µM [1, 12]: 0%; activation at 1 µM [2]: 8%; activation at 10 µM [2]: 12%; activation at 100 µM [2]: 5%; DF norm AVERAGE OR71a [2, 13]: 0.08012; DF norm AVERAGE OR71a [2, 14]: 0.1157; DF norm AVERAGE OR71a [2, 15]: 0.05175
OCCc1ccccc1 [phenethyl alcohol]	3	6	3	0.00	0.06	0.00	0	0.05732	0	0.09	0.00	0.00	0.09	0.03	0.0218	0.08619	0	0			
CCOC(=O)CC [ethyl propionate]	1.56	1.89	0				0	0	0				0.0185	0.00	0.00	0	0	0	0	0	activation at 100 µM [1, 12]: 0%; activation at 1 µM [2]: 0%; activation at 10 µM [2]: 0%; activation at 100 µM [2]: 0%
C=CC(O)C/C=C\CC (centres unmarked) [(5Z)-octa-1,5-dien-3-ol]	0	2.25	0										0.00	0.0228	0.00				0	0	DF norm AVERAGE OR10a [1]: 0; activation at 100 µM [1, 12]: 0%; activation at 1 µM [2]: 0%; activation at 10 µM [2]: 0%; activation at 100 µM [2]: 0%; DF norm AVERAGE OR71a [2, 13]: 0; DF norm AVERAGE OR71a [2, 14]: 0; DF norm AVERAGE OR71a [2, 15]: 0
CC/C=C\CCO [Z-3-hexenol]				0.17	0.19	0.10				0.00	0.00	0.00									
